Results from US9801404B2, “IGF-1 production-promoting agent” (MORINAGA MILK INDUSTRY CO., LTD., priority 2012, dated 2017).
Several values for one entry are separate records, joined by “and”; a condition that tells them apart may be missing. Equal entries are not always repeated.

Tests used:
[1] = test system: IGF-1 mRNA in gastrocnemius; assay: Expression of IGF-1 mRNA in gastrocnemius at recovery from tail-suspension muscular atrophy; type: in vivo, C57BL/6J mice; details: mice after tail suspension; feed with 0.07 mass % nobiletin for 3 days
From the text: (§1) Male C57BL/6J mice (10-week old) were preliminarily bred for one week, and divided into six groups (control group (Cont), standard feed administration after tail suspension group (Fix), Citrus depressa extract administration after tail suspension group (Fix+SE), polymethoxyflavonoid administration after tail suspension group (Fix+PMF), nobiletin administration after tail suspension group (Fix+NOB), and tangeretin administration after tail suspension group (Fix+TAN), n=8 for the Cont, Fix, Fix+SE, Fix+PMF, Fix+NOB, and Fix+TAN groups).
(§2) After the preliminary breeding, muscular atrophy was induced in the mice of the Fix and Fix+SE groups by tail suspension for two weeks. […]
On day 4 after the change of the feed, the mice were dissected, and the serum IGF-1 concentration, expression of follistatin mRNA in the gastrocnemius, expression of IGF-1 mRNA in the gastrocnemius, and phosphorylation ratio (β+γ) of p70S6K1 in the gastrocnemius were evaluated.
(§3) The serum IGF-1 concentration was measured in the same manner as that used in Example 1. The expression of follistatin mRNA in the gastrocnemius was measured in the same manner as that used in Example 1, except that the hind leg gastrocnemius was extracted from each […], and Assay ID Mm00514982_ml (Applied Biosystems) was used as the primer. […]

[2] = test system: p70S6K1; assay: Phosphorylation ratio of p70S6K1 in gastrocnemius at recovery from tail-suspension muscular atrophy; type: in vivo, C57BL/6J mice; details: mice after tail suspension; feed with 0.04 mass % tangeretin for 3 days
From the text: as §1, §2
On day 4 after the change of the feed, the mice were dissected, and the serum IGF-1 concentration, expression of follistatin mRNA in the gastrocnemius, expression of IGF-1 mRNA in the gastrocnemius, and phosphorylation ratio (β+γ) of p70S6K1 in the gastrocnemius were evaluated. […]
as §3

SMILES | Expression of IGF-1 mRNA in gastrocnemius (AU) [1] | Expression of IGF-1 mRNA in gastrocnemius, Fix+NOB group compared with the Fix group [1] | Phosphorylation ratio of p70S6K1, Fix+TAN group compared with the Fix group [2] | Phosphorylation ratio of p70S6K1 in gastrocnemius (β + γ) (%) [2]
COc1ccc(-c2cc(=O)c3c(OC)c(OC)c(OC)c(OC)c3o2)cc1OC [NOB, nobiletin] | 1.75±0.40 AU and 1.75 AU | 107% | – | –
COc1ccc(-c2cc(=O)c3c(OC)c(OC)c(OC)c(OC)c3o2)cc1 [TAN, tangeretin] | – | – | 112% | 47.8±11.8% and 47.8%
